The nature of series [1]: Solubilities in water and 1 x PBS buffer (UV-vis). To be noted: 25° C. It is filed as physicochemical. As for the experimental part:
The molar extinction co-efficients of exemplary cholesterol lowering compounds were measured in 1 x PBS buffer. The compounds were first dissolved in dimethyl sulfoxide. Solutions with a 0.5 mg/ml concentration were then prepared in DMSO. These solutions were diluted further with 1 x PBS by 100-fold, resulting in solutions with a 5 ug/ml concentration. The resulted diluted solutions were then measured and scanned using a UV-vis spectrophotometer for ultra-violet absorbances between 240 nm to 400 nm, using a UV 96-well microplate. The maximum UV absorbances and corresponding wavelengths were recorded (Table 1). The absorbance values were subtracted by that of a blank, 1 x PBS buffer containing […]. The volume of the solutions for UV measurements was 300 ul and the depth of the solutions was 0.7 cm. The molar extinction co-efficients were then calculated based on formula
The solubilities of the exemplary cholesterol lowering compounds were measured in water and 1 x PBS buffer. The compounds were first stirred with water and 1 x PBS buffer individually at room temperature for 1 h. The suspensions were then centrifuged for 2 min. The top clear solutions were filtered through filter paper, resulting in mother liquids, which were centrifuged again and diluted with 1 x PBS buffer for 10-fold for the solubilities in water and 100-fold the solubilities in 1 x PBS buffer. The resulted solutions were measured using a UV-vis spectrophotometer for UV absorbances with the maximum absorbances. The values were subtracted by that of a blank, 1 x PBS buffer. The corrected absorbances were then used to calculate the corresponding concentrations using the formula (1) and extinction coefficients (Table 1) shown above. The individual concentrations were then used to calculate the solubilities in 1.0 mL of water and 1 x PBS buffer.
The compounds were dissolved in DMSO to either 50 mg/ml, 10 mg/ml or 5 mg/ml solutions, which were diluted to 0.5 mg/ml with DMSO. These solutions were then diluted to 5 ug/ml with 1 x PBS buffer. The resulted solutions were then measured in a UV-vis spectrophotometer for UV scanning from 240 nm to 400 nm at 25° C. The absorbance values were subtracted by that of a blank, 1 x PBS buffer containing DMSO. The total volume of the solutions was 300 uL and the path length for each well was 0.7 cm in a UV 96-well plate. The extinction coefficients of the compounds were then calculated based on molar concentrations and the corrected UV absorbances at the maximum absorption (Table 1).
The mixtures wer stirred for 1 h at room temperature, transferred to 1.5 mL Eppendorf tubes, and centrifuged for 2 min. The clear solutions were filtered through filter papers, affording clear solutions, which were centrifuged again for 2 min. The top clear solutions were diluted by 1 x PBS buffer by 10-fold for the solubilities in water and 100-fold for the solubilities in 1 x PBS buffer. The new clear solutions were then measured individually using a UV-vis spectrophotometer and a UV 96-well microplate. The absorbance values were subtracted by that of a blank, 1 x PBS buffer. Concentrations and solubilities of the compounds were then calculated using their extinct coefficients and the corrected UV absorbances at the maximum absorptions (Table 1).

The test system of series [2] is total cholesterol levels within the medium. Briefly: Total cholesterol quantification in culture medium of iPSC-derived hepatocytes. To be noted: 2 μg/mL, 24 hours; normalized with DMSO treated control. It is filed as cell-based, human. As for the experimental part: B. Human iPSC-derived hepatocytes were treated with 2 μg/mL of DL-1 for 24 hours. Total cholesterol levels within the medium were determined and normalized with DMSO treated control. Data are shown as mean±SEM of six replicates (n=6); * ** P<0.001.
Cell Culture medium was harvested from human iPSC-derived hepatocytes (Day 20) before and after 24 hours of DL-1 (2 μg/mL) or vehicle treatment. Pre-drug and Post-drug medium were concentrated using Amico® Ultra 10K Centrifugal Filters (Sigma-Aldrich, #Z740171), and total cholesterol levels were determined using the colorimetric cholesterol assay kit (Sigma-Aldrich, #MAK043) following the manufactural instructions.

The test system of another series is APOB mRNA. Briefly: APOB mRNA level by real-time qPCR. The format is cell-based, human. As to conditions: 2 μg/mL, 24 hours. As for the experimental part:
G. Human iPSC-derived hepatocytes were treated with 2 μg/mL of DL-1 or equivalent concentration of DMSO for 24 hours. […] (A) APOB mRNA level was determined using real-time qPCR. (B) Intracellular APOB, LDLR, and HSP90 protein levels were determined via immunoblot. (C) Quantification of biological replicates of immunoblots on samples treated as in (B). Data are shown as mean±SEM of four replicates (n=4).
C. Human iPSC-derived hepatocytes (iPSC-Heps) were treated with 2 μg/mL of DL-1 or equivalent concentration of DMSO for 24 hours. In FIG. 7A, APOB mRNA level was determined using real-time qPCR. In FIG. 7B Intracellular APOB, LDLR, and HSP90 protein levels were determined via immunoblot; Quantification of biological replicates of immunoblots. Data are shown as mean±SD of four replicates (n=4). In FIG. 12A LDL uptake assay was performed by pre-treating cells with 2 μg/mL of DL-1, 20 μM of Atorvastatin, and equivalent concentration of DMSO for 24 hours followed by 4 hours of pHrodo-LDL exposure; LDL endocytosis was determined and quantified by fluorescence image; data are shown as mean±SD of triplicates (n=3). […]
Human iPSC-derived hepatocytes (Day 20) were treated with 2 μg/mL of DL-1 for 24 hours. […] Quantitative real-time PCR was performed on a BioRad CFX384 real-time PCR machine.
(In general: Real-time PCR tracks product formation cycle by cycle.)

Molecules are shown by their SMILES.

In the case of `Sc1nc(S)nc(Nc2ccc(Nc3ccccc3)cc2)n1` (racemic) [DL-1, 6-{[4-(phenylamino)phenyl]amino}-1,3,5-triazine-2,4-dithiol], the “Solubility in 1.0 ml PBS buffer” value in series [1] (1 × PBS buffer) came out at 25 µg. The “Solubility in 1.0 ml water” value in series [1] (water) came to 0.37 µg. In addition, the “total cholesterol level in culture medium” value in series [2] is on record as “reduced total cholesterol level”. For the same compound, the “APOB mRNA level” value with APOB mRNA was “no impact on APOB mRNA and intracellular protein levels”.
